One assay has as its system cellular reprogramming. Briefly: Enhancement of cellular reprogramming by nuclear receptor ligands. The format is cell-based.
Assay [1] relates to human primary fibroblasts (CRL2097 or BJ). The assay is described as follows: Reprogramming of human primary fibroblasts transduced with 4TFs. The assay is classed as cell-based. On the procedure:
We tested known inhibitors of the TGFβ receptor and MEK on 1×10^4 [Feng, B. et al., Cell Stem Cell 4, 301-12 (2009)] human primary fibroblasts (CRL2097 or BJ) that were retrovirally transduced with the 4TFs (Oct4, Klf4, Sox2 and c-Myc), for their effects on reprogramming kinetics and efficiency. On day 7 (D7) post-infection, the compounds were added, individually or in combinations, and the cultures were examined for iPSCs over the next 1-3 weeks.
The Slc7a1-expressing human fibroblast cells were seeded at 1×10^5 cells/well of a 6 well plate on the day 1. On day 2, 0.25 ml of each retroviral supernatant was added to the cells in the presence of 6 μg/ml polybrene. A second round of transduction was done on day 3. Infection efficiency was estimated by fluorescence microscopy on cells transduced in parallel with GFP or RFP gene-carrying retroviruses. Seven days after initial transduction, fibroblasts were harvested by trypsinization and re-plated at 1×10^4 cells/well of a 6 well plate coated with matrigel (1:50 dilution, cat 354234, BD Biosciences). For compound treatment, the cells were cultured in human reprogramming medium (DMEM/F12, 20% Knockout serum replacer, lx MEM Non-Essential amino acid, lx glutamax, 0.11 mM 2-Mercaptoethanol, 20 ng/ml bFGF and 1,000 U/ml LIF) and were treated with 2 μM SB431542 (Stemgent), 0.5 μM PD0325901 (Stemgent), or combinations of the compounds. The media were changed every 2-3 days depending on the cell density. Seven days after compound treatment, either the plates were fixed and stained for Alkaline phosphatase (ALP) activity, or stained for protein markers, or the cultures were continued with or without indicated splitting by trypsinization till day 30. For split cultures, the cells were split (1:4) and re-plated onto irradiated CF-1 MEF feeder layer (2.5×10^5 cells/well) in each well of 6 well plate and were split (1:10) again on day 21. The cells were maintained in the same media and compound cocktail described above except for the concentrations of PD0325901 (0.5 μM for D14 and 1 μM for D21) and SB431542 (0.5-1 μM after D14). The iPSC colonies were subsequently maintained in conventional hESC media in the absence of the above compounds.
Alkaline phosphatase staining was performed using ALP detection kit (cat no: SCR004, Chemicon) according to the product instructions. For immunocytochemistry, cells were fixed in 4% paraformaldehyde (10 min, RT), washed twice with PBS, blocked using 5% normal donkey serum (Chemicon) and 0.1% TritonX-100 (15 min, RT) and then treated with primary antibodies overnight at 4° C. The primary antibodies used were anti-NANOG (cat no: AB9220, Chemicon, 1:1,000); anti-OCT4 (cat no: sc-5279, Santa Cruz biotech, 1:200), anti-SSEA 4 (cat no: mab4304, Chemicon, 1:500), anti-Tra-1-81 (cat 560123, BD Biosciences, 1:100), anti-Tra-1-81 (mAb 4381, Chemicon, 1:500), anti-βIII TUBULIN (cat no: MMS-435P, Covance Research Products Inc, 1:1000), anti-PDX 1 (1:500) (a kind gift from Dr. C. Wright), anti-BRACHYURY (cat No: AF2085, R & D, final concentration 0.2 μg/ml). The cells were washed twice with PBS and then treated with secondary antibodies for 1 hour at room temperature. The secondary antibodies used were Alexa fluor 488 donkey anti-rabbit or anti-mouse IgG (Invitrogen, 1:1,000) and Alexa fluor 555 donkey anti-rabbit or anti-mouse IgG (Invitrogen, 1:1,000). Nuclei were stained with 0.5 μg/ml DAPI (Sigma). Images were captured using a Nikon Eclipse TE2000-U/X-cite 120 EXFO microscope with a photometric CoolSnap HQ2 camera.
We tested the TGFβ receptor inhibitor (SB431542), MEK inhibitor (PD0325901) and GSK-3 inhibitor (CHIR99021), on human fibroblast crl2097 that were retrovirally transduced with Oct4, Klf4, Sox2 and c-Myc, for their effects on reprogramming kinetics and efficiency. Conditions are the same as set forth in Example 5. Data were collected 8 days after compound treatment.

The subject of another assay is mouse fibroblasts. The assay is described as follows: Reprogramming of mouse fibroblasts with exogenous poly-Arg transcription factor proteins. The format is cell-based. The note with it: cells incubated with transcription factor proteins plus agent. On the procedure:
Mouse fibroblasts were grown in mESC medium supplemented with 8 μg/ml of either Oct4/Sox2/Klf4 or Oct4/Sox2/Klf4/Myc (all proteins comprising poly-Arg as described above) for 6-8 hours, washed, and incubated for 2-3 days in mESC media without the above-listed transcription factors. This (4-12 hours with, 1-3 days without) was repeated a number (1, 2, 3, 4, or more) of times and then the cells were cultured in mESC for two weeks.
Mouse fibroblasts were grown in mESC growth medium [Knockout DMEM (Invitrogen) supplemented with 10% ES-FBS+10% KSR, 0.1 mM 2-ME, 1% Glutamax, 1% Non-essential amino acids, 1% EmbryoMax ESC Qualified Nucleosides (Millipore), and 10^3 units/ml LIF (ESGRO, Chemicon International)] supplemented with 8 μg/ml of Oct4/Sox2/Klf4/Myc (all four transcription factors are tagged with poly-Arg […]; SEQ ID NO:2) for 4-12 hours, followed by culturing the cells in the absence of the Oct4/Sox2/Klf4/Myc polypeptides for one day. This procedure was repeated 4 times. The cells were then cultured in mESC medium for another two weeks. iPSC clones were detected by colony morphology and expression of pluripotency markers. An intermediate iPSC clone, which expresses ALP but not Oct4 (Oct4), was dissociated with Trypsin-EDTA. The clone was then expanded by continuous culturing with regular mESC medium or medium supplemented with 0.5 μM PD0325901, 3 μM CHIR99021, 0.5 μM A-83-01. The number of Oct4-positive colonies were counted 2 weeks after small molecule treatment (FIG. 14).

For the next assay, the system named is OG2 MEFs. The assay is described as follows: Reprogramming of OG2 MEFs retrovirally transduced with OSKM or OSK (EGFP positive colonies). The assay is classed as cell-based, mouse. The note with it: 2 μM SB431542, 5 μM CHIR99021, 0.1 μM PD0325901. The method, then:
MEFs were derived from OG2 mice according to the protocol reported on WiCell Research Institute website: “Introduction to human embryonic stem cell culture methods”. OG2 transgenic mice carry both GFP under the control of the Oct4 promoter. MEFs were transduced with either (1) Oct4, Klf4, Sox2 and c-Myc; or (2) Oct4, Klf4, and Sox2 as described (Takahashi & Yamanaka, Cell. 2006; 126:663-676). […] Transduced MEFs were then treated with chemicals or chemical combinations, including GSK-3 inhibitor CHIR99021 (5 μM), TGFβ receptor inhibitor SB431542 (2 μM), MEK inhibitor PD0325901 (0.1 μM) for 11 days (for Oct4, Klf4, Sox2 and c-Myc transduced MEFs) or 13 days (for Oct4, Klf4 and Sox2 transduced MEFs), and EGFP positive colonies were counted.

For the compound `CC(C)C[C@H](NC(=O)OCC1c2ccccc2-c2ccccc21)C(=O)O` [Fmoc-Leu], the cellular reprogramming result in the assay on cellular reprogramming (used at 5 μM) is recorded as “can enhance cellular reprogramming”.

With `NC(=O)c1ccc(-c2nc(-c3ccc4c(c3)OCO4)c(-c3ccccn3)[nH]2)cc1` [SB431542], the “ALP+ colonies with hESC-like morphology (FIG. 7A)” value in assay [1] (4TFs transduced fibroblasts, 7 days after compound treatment, SB431542 at 2 μM) was “yielded colonies with hESC-like morphology as early as 7 days after compound treatment”. Besides, in assay [1] (30 days), the “number of granulate (partially reprogrammed) colonies” value is reported as “outnumbered by several fold the few hESC-like colonies”. In addition, the “dose dependence of effect on reprogramming” value in assay [1] (FIG. 7) is “dose dependent”. Further, the “ALP+ colonies with characteristic hESC-like morphology” value in assay [1] (day 7 post-treatment (D14), SB431542 2 μM, PD0325901 0.5 μM, 1×10^4 cells) is given as 1-2 colonies. Also, the “efficiency and speed of development of pluripotent cells” value in the assay with mouse fibroblasts is “improved efficiency and speed of development of pluripotent cells”. Besides, the reprogramming efficiency in the assay on OG2 MEFs (Oct4, Klf4, Sox2 and c-Myc transduced MEFs, 11-day treatment) is around 1.8%; in the assay with OG2 MEFs (Oct4, Klf4, and Sox2 transduced MEFs, 13-day treatment), around 1.2%.

On to `C=C(c1ccc(C(=O)O)cc1)c1cc2c(cc1C)C(C)(C)CCC2(C)C` [Bexarotene], for which the cellular reprogramming result in the assay with cellular reprogramming (at 3 μM) is recorded as “can enhance cellular reprogramming”.

(Values after US9771563B2, “Chemical approaches for generation of induced pluripotent stem cells” (The Scripps Research Institute, priority 2008, dated 2017).)
